From patent publication US20230416205A1, “COMPOUNDS, COMPOSITIONS, AND METHODS” (Denali Therapeutics Inc, priority 2020, published 2023)
Read-outs that look alike come from different tables or passages of the source.

System: NLRP3
Experiment: IL-1β secretion assay in PMA-differentiated, LPS/nigericin-stimulated THP-1 cells (384-well, ELISA read-out)
Format: cell-based, human
Description: Compounds as provided herein were tested in the following assay. Cell culture medium employed contained RPMI 1640 medium (89%), FBS (10%), Pen/Strep (1%), and 2-mercaptoethanol (0.05 mM). Freezing medium was made up of 90% FBS and 10% DMSO. THP-1 cells were removed from the liquid nitrogen and placed into a 37° C. water bath to thaw, until signs of ice dissipated. The cells were then added to 9 mL of warm cell culture medium and centrifuged for 5 minutes at 1000 rpm. The supernatant was discarded, and the cells were resuspended in new cell culture medium. THP-1 cells were then split and cultured in the cell culture medium, being passaged every 2-3 days with the cell density will be maintained between 5×10^5 and 1.5×10^6 viable cells/mL.
To freeze, cells were resuspended with fresh freezing medium, adjusting the cell density to 5×10^6 cells/mL. The cell suspension was partitioned into 1 mL aliquots per vial, and the vials were transferred to a −80° C. freezer. After one day at −80° C., the cell vials were transferred to liquid nitrogen freezer for storage.
PMA was dissolved in DMSO to make a stock solution at 5 mg/mL and stored in 10 μl aliquots at −20° C. for single use. PMA is added to normal growth medium. LPS was diluted with 1 mL of water solution to provide a 1 mg/mL stock solution and stored in 15 μl aliquots at −20° C. for single use. Nigericin is diluted in ice cold 100% ethanol to 5 mg/mL (6.7 mM) and stored in 75 μL aliquots at −20° C. for single use. Serum-free media contains RPMI 1640 medium (99%), Pen/Strep (1%), and 2-mercaptoethanol (0.05 mM). The two control conditions used to qualify and normalize test compound dose-response curves were as follows: High Control=25 ng/mL LPS, 5 μM Nigericin, 0.5% DMSO, Low Control=25 ng/mL, LPS, 0.5% DMSO.
THP-1 cells were diluted to provide a suspension at a concentration of 1.0×10^6 cells/mL with the total volume of suspension required to enable the desired number of assay plates. The growth media was supplemented with PMA (5 ng/mL final concentration) and the cells were incubated at 37° C. under a humidified atmosphere of 5% CO2 for 40 h.
All media was carefully aspirated from each culture flask. The cells were washed carefully with 1×DPBS. The cells were then briefly digested with trypsin LE for 5 minutes at 23° C., and immediately resuspended in cell growth media. After resuspension, the cells were centrifuged at 1000 rpm for 3 minutes and the supernatant was discarded. The cells were resuspended in DPBS and once again centrifuged at 1000 rpm for 5 minutes. The supernatant was discarded and the cell pellet was resuspended in serum-free media supplemented with LPS (25 ng/mL final concentration) to enable the distribution of 30K THP-1 cells within 45 μL of media into each well of 384-well PDL-coated plates. The 384-well plates were then incubated at 37° C. under a humidified atmosphere of 5% CO2 for 2 h. Following this period, test compounds were dispensed by Tecan across the desired concentration range with all wells normalized to a final 0.5% DMSO concentration. The plates were then incubated at 37° C. under a humidified atmosphere of 5% CO2 for 1 h. Following this period, 5 μL of the […] was added to each of the appropriate wells and plates were centrifuged at 1000 rpm for 30 seconds. The plates were the immediately reintroduced to the incubator at 37° C. under a humidified atmosphere of 5% CO2 for 2 h. After this time, 35 μL/well of supernatant was collected and transferred into v-bottom plate and centrifuged at 1000 rpm for 1 minute. These supernatant aliquots were analyzed using an IL-Iβ detection kit as described below. If needed, the test samples could be snap frozen and stored at −80° C. until analyzed.
To prepare each ELISA plate, capture antibody (mAb Mt175) was diluted with PBS to a final concentration of 2 μg/mL and then 20 μL of this solution was added to each well of the ELISA plate. Each plate was allowed to incubate overnight at 4° C.

[1] = Homo sapiens, THP-1, IL-1β secretion, PMA-differentiated THP-1 cells, LPS then nigericin stimulation, ELISA read at 450 nm, read-out: Activity
[2] = Homo sapiens, THP-1, Table 4, IL-1β secretion, LPS/nigericin-stimulated THP-1 cells, read-out: IC50
[3] = Table 4, IL-1β secretion, LPS/nigericin-stimulated THP-1 cells, read-out: IC50
[4] = IL-1β secretion, PMA-differentiated THP-1 cells, LPS then nigericin stimulation, ELISA read at 450 nm, read-out: Activity

## O=C(CN1C[C@@]2(C[C@H]2F)c2cc(Br)ccc2C1=O)Nc1ncc(F)cn1 (mixture of isomers) [Example 80, 2-[(2′r,4r)-6-bromo-2′-fluoro-1-oxospiro[3H-isoquinoline-4,1′-cyclopropane]-2-yl]-N-(5-fluoropyrimidin-2-yl)acetamide]
[1]
  IC50: < 10000 nM
[2]
  IC50: 1060 nM

## O=C(CN1C[C@@]2(C[C@@H]2F)c2cc(Br)cc(F)c2C1=O)Nc1ncc(F)cn1 (mixture of isomers) [Example 285, 2-[(2′s,4r)-6-bromo-2′,8-difluoro-1-oxospiro[3H-isoquinoline-4,1′-cyclopropane]-2-yl]-N-(5-fluoropyrimidin-2-yl)acetamide]
[1]
  IC50: < 10000 nM
[2]
  IC50: 165 nM

## O=C(CN1C[C@@]2(C[C@@H]2F)c2cc(Br)ccc2C1=O)Nc1ncc(F)cn1 (single isomer, unassigned) [Example 78]
[1]
  IC50: < 10000 nM
[2]
  IC50: 208 nM

## O=C(CN1C[C@@]2(C[C@@H]2F)c2c(ccc(Br)c2F)C1=O)Nc1ncc(F)cn1 (single isomer, unassigned) [Example 220, 2-[(2′s,4r)-6-bromo-2′,5-difluoro-1-oxospiro[3H-isoquinoline-4,1′-cyclopropane]-2-yl]-N-(5-fluoropyrimidin-2-yl)acetamide]
[1]
  IC50: < 10000 nM
[2]
  IC50: 20 nM

## N#Cc1cnc(NC(=O)CN2C[C@@]3(C[C@@H]3F)c3c(ccc(Br)c3F)C2=O)nc1 (single isomer, unassigned) [Example 221, 2-[(2′s,4r)-6-bromo-2′,5-difluoro-1-oxospiro[3H-isoquinoline-4,1′-cyclopropane]-2-yl]-N-(5-cyanopyrimidin-2-yl)acetamide]
[1]
  IC50: < 10000 nM
[2]
  IC50: 14 nM

## O=C(CN1C[C@@]2(C[C@@H]2F)c2c(ccc(Br)c2F)C1=O)Nc1ncc(Cl)cn1 (single isomer, unassigned) [Example 222, 2-[(2′s,4r)-6-bromo-2′,5-difluoro-1-oxospiro[3H-isoquinoline-4,1′-cyclopropane]-2-yl]-N-(5-chloropyrimidin-2-yl)acetamide]
[1]
  IC50: < 10000 nM
[2]
  IC50: 11 nM

## O=C(CN1C[C@@]2(C[C@@H]2F)c2c(ccc(Cl)c2F)C1=O)Nc1ncc(F)cn1 (single isomer, unassigned) [Example 223, 2-[(2′s,4r)-6-chloro-2′,5-difluoro-1-oxospiro[3H-isoquinoline-4,1′-cyclopropane]-2-yl]-N-(5-fluoropyrimidin-2-yl)acetamide]
[1]
  IC50: < 10000 nM
[2]
  IC50: 55 nM

## O=C(CN1C[C@@]2(C[C@@H]2F)c2c(ccc(Br)c2F)C1=O)Nc1ncccn1 (single isomer, unassigned) [Example 224, 2-[(2′s,4r)-6-bromo-2′,5-difluoro-1-oxospiro[3H-isoquinoline-4,1′-cyclopropane]-2-yl]-N-pyrimidin-2-ylacetamide]
[1]
  IC50: < 10000 nM
[2]
  IC50: 49 nM

## Cc1cnc(NC(=O)CN2C[C@@]3(C[C@@H]3F)c3c(ccc(Br)c3F)C2=O)nc1 (single isomer, unassigned) [Example 225, 2-[(2′s,4r)-6-bromo-2′,5-difluoro-1-oxospiro[3H-isoquinoline-4,1′-cyclopropane]-2-yl]-N-(5-methylpyrimidin-2-yl)acetamide]
[1]
  IC50: < 10000 nM
[2]
  IC50: 19 nM

## O=C(CN1C[C@@]2(C[C@@H]2F)c2c(ccc(Br)c2F)C1=O)Nc1ncc(C(F)(F)F)cn1 (single isomer, unassigned) [Example 226, 2-[(2′s,4r)-6-bromo-2′,5-difluoro-1-oxospiro[3H-isoquinoline-4,1′-cyclopropane]-2-yl]-N-[5-(trifluoromethyl)pyrimidin-2-yl]acetamide]
[1]
  IC50: < 10000 nM
[2]
  IC50: 31 nM

## O=C(CN1C[C@]2(C[C@H]2F)c2c(ccc(Br)c2F)C1=O)Nc1ncccn1 (single isomer, unassigned) [Example 227, 2-[(2′s,4r)-6-bromo-2′,5-difluoro-1-oxospiro[3H-isoquinoline-4,1′-cyclopropane]-2-yl]-N-pyrimidin-2-ylacetamide]
[1]
  IC50: < 10000 nM
[2]
  IC50: 127 nM

## O=C(CN1C[C@@]2(C[C@@H]2F)c2c(ccc(C3CC3)c2F)C1=O)Nc1ncc(F)cn1 (single isomer, unassigned) [Example 228, 2-[(2′s,4r)-6-cyclopropyl-2′,5-difluoro-1-oxospiro[3H-isoquinoline-4,1′-cyclopropane]-2-yl]-N-(5-fluoropyrimidin-2-yl)acetamide]
[1]
  IC50: < 10000 nM
[2]
  IC50: 21 nM

## O=C(CN1C[C@@]2(C[C@@H]2F)c2c(ccc(C3CC3)c2F)C1=O)Nc1ncc(Cl)cn1 (single isomer, unassigned) [Example 229, 2-[(2′s,4r)-6-cyclopropyl-2′,5-difluoro-1-oxospiro[3H-isoquinoline-4,1′-cyclopropane]-2-yl]-N-(5-chloropyrimidin-2-yl)acetamide]
[1]
  IC50: < 10000 nM
[2]
  IC50: 32 nM

## O=C(CN1C[C@@]2(C[C@@H]2F)c2cc(C(F)(F)F)ccc2C1=O)Nc1ncc(F)cn1 (single isomer, unassigned) [Example 234, 2-[(2′s,4r)-2′-fluoro-1-oxo-6-(trifluoromethyl)spiro[3H-isoquinoline-4,1′-cyclopropane]-2-yl]-N-(5-fluoropyrimidin-2-yl)acetamide]
[1]
  IC50: < 10000 nM
[3]
  IC50: 78 nM

## O=C(CN1C[C@@]2(C[C@@H]2F)c2cc(C(F)(F)F)ccc2C1=O)Nc1ncc(F)cn1 (single isomer, unassigned) [Example 235, 2-[(2′s,4r)-2′-fluoro-1-oxo-6-(trifluoromethyl)spiro[3H-isoquinoline-4,1′-cyclopropane]-2-yl]-N-(5-fluoropyrimidin-2-yl)acetamide]
[4]
  IC50: < 10000 nM
[3]
  IC50: 850 nM

## N#Cc1cnc(NC(=O)CN2C[C@@]3(C[C@@H]3F)c3cc(C(F)(F)F)ccc3C2=O)nc1 (single isomer, unassigned) [Example 236, N-(5-cyanopyrimidin-2-yl)-2-[(2′s,4r)-2′-fluoro-1-oxo-6-(trifluoromethyl)spiro[3H-isoquinoline-4,1′-cyclopropane]-2-yl]acetamide]
[1]
  IC50: < 10000 nM
[3]
  IC50: 1120 nM

## N#Cc1cnc(NC(=O)CN2C[C@@]3(C[C@@H]3F)c3cc(C(F)(F)F)ccc3C2=O)nc1 (single isomer, unassigned) [Example 237, N-(5-cyanopyrimidin-2-yl)-2-[(2′s,4r)-2′-fluoro-1-oxo-6-(trifluoromethyl)spiro[3H-isoquinoline-4,1′-cyclopropane]-2-yl]acetamide]
[4]
  IC50: < 10000 nM
[3]
  IC50: 61 nM

## O=C(CN1C[C@@]2(C[C@@H]2F)c2cc(C(F)(F)F)ccc2C1=O)Nc1ncc(Cl)cn1 (single isomer, unassigned) [Example 238, N-(5-chloropyrimidin-2-yl)-2-[(2′s,4r)-2′-fluoro-1-oxo-6-(trifluoromethyl)spiro[3H-isoquinoline-4,1′-cyclopropane]-2-yl]acetamide]
[1]
  IC50: < 10000 nM
[3]
  IC50: 414 nM

## O=C(CN1C[C@@]2(C[C@@H]2F)c2cc(C(F)(F)F)ccc2C1=O)Nc1ncc(Cl)cn1 (single isomer, unassigned) [Example 239, N-(5-chloropyrimidin-2-yl)-2-[(2′s,4r)-2′-fluoro-1-oxo-6-(trifluoromethyl)spiro[3H-isoquinoline-4,1′-cyclopropane]-2-yl]acetamide]
[4]
  IC50: < 10000 nM
[3]
  IC50: 37 nM
